The source of these data is PMC3755991, “Crystal Structure and Substrate Specificity of D-Galactose-6-Phosphate Isomerase Complexed with Substrates” (PLoS ONE, 2013).

Test [1] concerns the target T1, LacAB (D-galactose-6-phosphate isomerase) (Lacticaseibacillus rhamnosus, UniProt A0A7S7FMU0+A0ABF7SXF6).
T1 construct: gene LRHM_0645; full-length LacA (142 residues) and LacB (172 residues) co-expressed in E. coli BL21(DE3), pQE-80L, N-terminal His6
The experiment in a line: X-ray crystal structure, soaking. The test is classed as binding. Particulars: converted in the crystal, active site.

In test [2] the target is T1, LacAB (D-galactose-6-phosphate isomerase). The experiment in a line: conversion to D-psicose in soaked crystal. The test is classed as binding. The conditions noted are these: 40 mM soak for 2 hr; D-psicose seen in the electron density.
For test [3], the target named is D-galactose-6-phosphate isomerase LacAB from Lactobacillus rhamnosus (heterodimer of LacA and LacB) (Lactobacillus rhamnosus). The experiment in a line: SEC-MALS; purified LacAB on Superdex 200 10/300 GL, 50 mM Tris-HCl pH 7.5, 200 mM NaCl, 1 mL/min. For orientation: SEC sorts molecules by how far they enter the pores of the column.

With `O=C(CO)[C@H](O)[C@H](O)CO` [D-ribulose], the “X-ray crystal structure, soaking” value in test [1] (crystal soaked in 45 mM D-ribose for 2 hr) is listed as 4LFN for its complex with D-ribulose. Regarding `OC[C@H]1OC(O)[C@H](O)[C@H](O)[C@@H]1O` (stereo partly drawn) [D-allose], the “conversion to D-psicose in soaked crystal” value in test [2] was “D-allose and D-ribose revealed that the substrates are converted to D-psicose and D-ribulose, respectively”. For `OCC1(O)OC[C@@H](O)[C@@H](O)[C@H]1O` (stereo partly drawn) [D-psicose], the “X-ray crystal structure, soaking” value in test [1] (crystal soaked in 40 mM D-allose for 2 hr) is 4LFM for its complex with D-psicose. As a reminder, the stoichiometry N is the number of molecules, sites or subunits per partner or assembly. Consider “D-galactose-6-phosphate isomerase LacAB from Lactobacillus rhamnosus (heterodimer of LacA and LacB) (from UniProt A0ABF7SXF6 1-172) (complex)”, for which the stoichiometry N in test [3] is 4.
